Data from US20240130690A1, “NON-INVASIVE DETERMINATION OF A PHY[…] OF INTEREST IN A SUBJECT FROM SPECTRAL DATA PROCESSED USING A TRAINED MACHINE LEARNING MODEL” (ISBRG CORP., priority 2021, published 2024).

Columns and labels:
[1] = Analyte composition of a subject after cannabis consumption (illustrative Table 2); assay type: in vivo, human; details: simplified data set to exemplify the method; for Analyte level, intoxicated state: 1 hr after consumption; for Analyte level, post-intoxicated state: 36 hr after consumption
From the text: For example, which is not to be considered limiting, in a THC induced intoxicated sate, a subject may comprise the analyte composition presented in Table 1. It is to be understood that this table presents a simplified data set to exemplify the method described herein. Other analytes, which may include known analytes or ghost analytes, are indicated as analytes A, B . . . C; A′, B′, . . . C′; A″, B″ . . . C″. These other analytes may increase or decrease in response to, or that are correlated with, the physiological condition and they may be included in this analysis.
In this example, the result may be considered positive for a THC-induced intoxicated state if the Index is greater than a preset value which is determined based on an analysis of the analytes determined in subjects who were exposed to a control treatment, or a range of THC under controlled conditions, for example an Index value of (2+A)/(C+ . . . +C) may be an indication of a positive result for the state of THC-induced intoxication.

[2] = cited from earlier work

Row | Compound | Analyte level, intoxicated state [1] | Analyte level, post-intoxicated state [1] | residual THC in serum ([2]; chronic users of marijuana, detected for 24 to 48 hours or longer, serum) | residual THC in whole blood ([2]; chronic users of marijuana, detected for 24 to 48 hours or longer, whole blood) | time of THC peak after inhaling ([2]; smoked marijuana) | THC level remaining ([2]; smoked marijuana, for 8 hours or more)
1 | CCCCCc1cc(O)c2c(c1)OC(C)(C)[C@@H]1CCC(C(=O)O)=C[C@@H]21 [THC-COOH, 11-nor-9-carboxy-THC] | 5 ng/mL | 11 ng/mL | – | – | – | –
2 | CCCCCc1cc(O)c2c(c1)OC(C)(C)[C@@H]1CCC(C)=C[C@@H]21 [THC, delta-9-tetrahydrocannabinol] | 78 ng/mL | 8 ng/mL | 1.0 to 6.4 ng/mL | 0.5 to 3.2 ng/mL | first few minutes | 1 to 2 ng/mL
3 | CCCCCc1cc(O)c2c(c1)OC(C)(C)C1CCC(CO)=CC21 (stereo not shown) [11-OH-THC, 11-hydroxy THC] | 5 ng/mL | 2 ng/mL | – | – | – | –
